Experimental data published in EP0256909B1, “N,N-bis-(4-fluorophenyl) carbamoyl acetohydroxamic acid and pharmaceutical composition containing it” (priority 1986, dated 1988).
Entries after “also recorded” stand apart in the source; their conditions may differ.

Experiments:
[1] = test system: rat; experiment: Search for stereotyped movements; type: in vivo; details: for mouvements stéréotypés (cotes): 22 h 30 min after administration, scored 0 to 3
Procedure: (§1) Le CRL 41131, en suspension dans une solution de gomme arabique à 5%, a été administré par voie intrapéritonéale sous un volume de 20 ml/kg chez la souris (mâle, NMRI, Evic Ceba) et de 5 ml/kg chez le rat (mâle, CD1, Sprague Dawley, Charles River).

[2] = test system: souris; details: in vivo, ip
Procedure: as §1
Le test est pratiqué sur des lots de 10 souris, 30 min après l'administration de CRL 41131.

[3] = test system: rat; experiment: Interaction with apomorphine, rat; type: in vivo; details: 64 and above all 256 mg/kg i.p., 30 min before s.c. apomorphine 0,5 mg/kg
Procedure: as §1
Le CRL 41131 est administré à des lots de 6 rats 30 min avant l'injection sous-cutanée de 0,5 mg/kg d'apomorphine.

[4] = test system: homme; experiment: Use as stimulant antidepressant in man; type: in vivo; details: 2 to 3 tablets of 150 mg per day, oral route
[5] = Solubility of the powder in solvents; type: physicochemical
[6] = test system: souris; experiment: Behavioural despair (forced immersion); type: in vivo; details: 32, 128, 512 mg/kg i.p., 2nd to 6th minute
Source text: Trente min après avoir reçu le CRL 41131, des lots de 6 souris (mâles, CD1, Charles River) sont placés dans un bécher rempli d'eau sur une hauteur de 6 cm. On note la durée totale d'immobilité entre la deuxième et la sixième minute suivant l'immersion.

[7] = test system: souris; experiment: Interaction with apomorphine, mouse; type: in vivo; details: compound i.p. 30 min before s.c. apomorphine 1 or 16 mg/kg
Procedure: as §1
Des lots de 6 souris reçoivent le CRL 41 131 30 min avant l'injection sous-cutanée d'apomorphine, à la dose de 1 ou 16 mg/kg. • a) Apomorphine 1 mg/kg • b) Apomorphine 16 ma/ka

[8] = test system: rat; experiment: Interaction with amphetamine; type: in vivo
[9] = test system: souris; experiment: Interaction with oxotremorine; type: in vivo; details: mouse, oxotremorine 0,5 mg/kg i.p.
Procedure: Le CRL 41131 est administré à des lots de 6 souris 30 min avant l'injection intrapéritonéale de 0,5 mg/kg d'oxotrémorine.

[10] = test system: souris; experiment: Intergroup aggressiveness; type: in vivo
Procedure: Après avoir séjourné pendant 3 semaines dans chacune des moitiés d'une cage séparées par une cloison opaque, des groupes de 3 souris reçoivent le CRL 41131. Trente minutes plus tard, les deux groupes d'une même cage sont réunis par retrait de la cloison et on note le nombre de combats qui surviennent en 10 min.

[11] = test system: souris; experiment: Interaction with reserpine; type: in vivo; details: 128 et 512 mg/kg i.p., mouse, 4 h after reserpine 2,5 mg/kg i.p.
Procedure: Quatre heures après l'injection intrapéritonéale de 2,5 mg/kg de réserpine, des lots de 6 souris reçoivent le CRL 41131.

[12] = test system: souris; experiment: Electroshock test; type: in vivo
[13] = test system: souris; experiment: Motility reduced by habituation to the enclosure; type: in vivo; details: 32, 128 et 512 mg/kg i.p.
Procedure: Après 18 h de séjour dans les actimètres, les souris (6 par dose, 12 témoins) reçoivent le CRL 41131. Elles sont aussitôt replacées dans leurs enceintes respectives et, 30 min plus tard, on enregistre leur motilité pendant 30 min.

[14] = test system: souris; experiment: Interaction with barbital; type: in vivo; details: 128 et 512 mg/kg, barbital 220 mg/kg i.p.
Procedure: Trente minutes après l'administration de CRL 41131, des lots de 10 souris reçoivent une injection intrapéritonéale de barbital (220 mg/kg).

[15] = in vivo; details: mouse, in vivo, ip; for LD50 at 48 h: 48 h after administration; for LD50 at 72 h: 72 h after administration; for LD50 at 24 h: dose létale 50% (DL50), 24 h after administration; for selectivity ratio: rapport, LD50 ratio isolated/grouped mice (formula not readable)
Procedure: as §1
(§2) Aussitôt après l'administration de CRL 41131, les souris groupées par lots de 10 sont placées dans des boîtes en Plexiglass (20 x 10 x 10 cm).
(§3) On note le nombre d'animaux morts, toutes les heures pendant 4 h et après 24, 48 et 72 h.
(§4) La toxicité du CRL 41131 est déterminée dans les mêmes conditions sur des lots de souris placées à raison d'une par boîte.

[16] = test system: souris; experiment: in vivo; details: 24 h after administration
Procedure: as §1, §2, §3, §4

[17] = test system: souris; experiment: Spontaneous motility (actimeter); type: in vivo
Procedure: Après avoir reçu le CRL 41131, les souris (6 par dose, 12 témoins) sont placées en actimètre où leur motilité est enregistrée pendant 30 min.

[18] = test system: souris; experiment: Global behaviour and reactivities, mouse; type: in vivo
Procedure: Des lots de 3 animaux sont observés avant, puis 15 min, 30 min, 1 h, 2 h, 3 h et 24 h après l'administration de CRL 41131.

[19] = comparison section, no dose given

With O=C(CC(=O)N(c1ccc(F)cc1)c1ccc(F)cc1)NO [CRL 41131, acide N,N-bis-(4-fluorophényl) carbamoylacétohydroxamique] the “mouvements stéréotypés (cotes)” value ([1]; 64 mg/kg i.p.) was 1, the “mouvements stéréotypés (cotes)” value ([1]; 128 mg/kg i.p.) was 2 and the “mouvements stéréotypés (cotes)” value ([1]; 256 mg/kg i.p.) was 3. The “mouvements stéréotypés persistant pendant” value ([1]; 128 et 256 mg/kg i.p.) was greater than 30 h, the “mouvements stéréotypés” value ([1]; from the lowest dose used, 64 mg/kg i.p.) was “provoque l'apparition de mouvements stéréotypés” and the incapacité motrice [2] was “ne provoque pas l'incapacité motrice majeure”. The “stéréotypies induites par l'apomorphine” value [3] was “potentialisation”, the “résultats comme antidépresseur stimulant chez l'homme” value [4] was “bons résultats comme antidépresseur stimulant” and the “solubilité dans les alcools, l'acétone, l'acétate d'éthyle” value ([5]; alcohols, acetone, ethyl acetate) was “soluble”. For the same compound, the “solubilité dans l'éther” value ([5]; ether) was “peu soluble”, the “solubilité dans l'éther isopropylique” value ([5]; isopropyl ether) was “insoluble” and the “solubilité dans l'eau” value ([5]; water) was “insoluble”. The “durée de l'immobilité” value [6] was “diminue la durée de l'immobilité”, the “action hypothermisante induite par l'apomorphine” value [7] was “ne s'oppose pas” and the “comportements de verticalisation et de stéréotypies” value [7] was “ne sont pas modifiés”. For the same compound, the “stéréotypies amphétaminiques” value ([8]; 64 and above all 256 mg/kg i.p., rat, 30 min before amphetamine 2 mg/kg i.p.) was “potentialisation importante”, the “test à l'amphétamine: stéréotypies du rat” value [8, 19] was “potentialise ces stéréotypies” and the “action hypothermisante de l'oxotrémorine (température)” value [9] was “n'a pas d'effet; also recorded: ne modifie pas”. For the same compound, the “intensité des tremblements provoqués par l'oxotrémorine” value [9] was “n'a pas d'effet; also recorded: ne modifie pas”, the “signes de stimulation cholinergique périphérique dus à l'oxotrémorine” value [9] was “ne modifie pas” and the nombre de combats ([10]; 512 mg/kg i.p. (highest dose used), 30 min before, fights in 10 min) was “diminue nettement le nombre de combats”. For the same compound, the “agressivité intergroupe des souris” value ([10]; 128 et 512 mg/kg, comparison section) was “diminution”, the “hypothermie réserpinique” value [11] was “s'oppose tardivement (24 h)” and the “ptôsis réserpinique” value [11] was “s'oppose tardivement (24 h)”. For the same compound, the “effets létaux de l'électrochoc” value ([12]; 32, 128 et 512 mg/kg i.p., mouse, 30 min after administration) was “aggrave modérément les effets létaux de l'électrochoc”, the “test à l'électrochoc” value [12, 19] was “aggrave les effets létaux de l'électrochoc” and the “activité motrice chez la souris habituée à son enceinte” value [13] was “reprise nette de l'activité motrice”. The “durée du sommeil barbiturique” value [14] was “diminue encore le sommeil; also recorded: diminue la durée du sommeil barbiturique”, the LD50 at 48 h ([15]; DL50, grouped mice) was roughly 480 mg/kg and the LD50 at 72 h ([15]; DL50, grouped mice) was roughly 370 mg/kg. The LD50 at 48 h ([15]; DL50, isolated mice) was roughly 300 mg/kg, the LD50 at 72 h ([15]; DL50, isolated mice) was roughly 1100 mg/kg and the LD50 at 24 h ([15]; grouped mice) was roughly 700 mg/kg. It also gave an LD50 at 24 h ([15]; isolated mice) of roughly 500 mg/kg, a selectivity ratio ([15]; 48 h) of 2.7 and a selectivity ratio ([15]; 72 h) of 2.97. The “toxicité chez les souris groupées par rapport aux souris isolées” value [16] was “modérément plus toxique chez les souris groupées”, the “durée de l'effet” value ([17]; 32 mg/kg i.p.) was 4 h and the “durée de l'effet” value ([17]; 128 mg/kg i.p.) was 4 à 24 h. For the same compound, the “durée de l'effet” value ([17]; 512 mg/kg i.p.) was greater than 24 h, the hypermotilité ([17]; 512 mg/kg i.p. (highest dose), given 30 min before actimeter) was “l'hypermotilité est moins importante qu'à 128 mg/kg” and the “activité motrice spontanée” value ([17]; 8, 32, 128 et 512 mg/kg i.p., given 30 min before actimeter) was “augmente modérément l'activité motrice spontanée”. For the same compound, the “activité motrice spontanée” value ([17]; 128 et 512 mg/kg i.p., given 2 h before actimeter) was “cette augmentation est plus nette”, the “motilité spontanée” value ([17]; 128 et 512 mg/kg i.p., given 4 h before actimeter) was “augmente la motilité spontanée” and the “activité motrice spontanée” value ([17]; from 8 mg/kg i.p., given 2 h before actimeter) was “augmente l'activité motrice spontanée”. For the same compound, the minimal effective dose ([17]; ip, mouse, i.p., overall conclusion, read-out: doses qui augmentent l'activité motrice spontanée) was no less than 32 mg/kg, the “motilité spontanée” value ([17]; only 512 mg/kg i.p., given 24 h before actimeter) was “augmente modérément la motilité spontanée” and the “Comportement global: excitation” value ([18]; 128 mg/kg i.p.) was “excitation (1/3) pendant 1 h”. The “Comportement global: excitation” value ([18]; 512 mg/kg i.p.) was “excitation (1/3 pendant 1 h, 2/3 entre 2 et 3 h, et 3/3 à 24 h)”, the “Comportement global et réactivités à 24 h” value ([18]; 512 mg/kg i.p., 24 h) was “mouvements d'apparence stéréotypée, augmentation de la réaction de peur et de la réactivité au toucher à 24 h” and the “Comportement, réactivités, variations du diamètre pupillaire et de la température” value ([18]; 8 et 32 mg/kg i.p.) was “comparables à ceux du lot témoin”.
